Measurements published in patent US10662476B2 (priority 2011, dated 2020).
Read-outs that look alike come from different tables or passages of the source.

What was measured:
[1] = Blood concentrations of morphine glucuronides by ABCC3 -211C>T genotype; settings: for ratio to morphine concentration: heterozygous or homozygous ABCC3 -211C>T versus wild-type; for mean concentration at sampling time 10 to 15 minutes: wild-types (C/C) versus heterozygous and homozygous ABCC3 -211C>T, after single morphine dose
[2] = system: women following cesarean section; settings: cited from earlier work
[3] = system: children after tonsillectomy; assay: Pain intensity before and after codeine (0-100 visual analog scale); assay type: in vivo, human; settings: POD 0-2; 0-100 VAS, 45-60 minutes after dose; SE 2
[4] = system: children after tonsillectomy; assay: Codeine-related adverse drug reactions at home after tonsillectomy (parent diary); settings: with every one point increase in CYP2D6 TAS; POD 0-2
[5] = system: children following T/TA; settings: cited from earlier work

Row | Compound | ratio to morphine concentration [1] | mean concentration at sampling time 10 to 15 minutes [1] | blood concentration at sampling time 10 to 15 minutes ([1]; twelve out of 105 children, all carrying the ABCC3 -211C>T variant, below lower quantitative limit) [ng/mL] | reported analgesia ([2]; two patients with CYP2D6 TAS >3, discontinued due to ADRs) | reported analgesia ([2]; two patients with CYP2D6 TAS=0) | reduction of pain intensity (average) [3] [points] | increase of predicted number of ADRs [4] | children withdrawn from study due to intolerable side effects ([5]; PRN administration following T/TA) [%] | children withdrawn from study due to intolerable side effects ([5]; around-the-clock (ATC) administration following T/TA) [%]
1 | CN1CC[C@]23c4c5ccc(O[C@@H]6O[C@H](C(=O)O)[C@@H](O)[C@H](O)[C@H]6O)c4O[C@H]2[C@@H](O)C=C[C@H]3[C@H]1C5 [M3G, Morphine-3-glucuronide] | significantly lower | higher | – | – | – | – | – | – | –
2 | CN1CC[C@]23c4c5ccc(O)c4O[C@H]2[C@@H](O[C@@H]2O[C@H](C(=O)O)[C@@H](O)[C@H](O)[C@H]2O)C=C[C@H]3[C@H]1C5 [M6G, morphine-6-glucuronide] | significantly lower | higher | < 1 | – | – | – | – | – | –
3 | COc1ccc2c3c1O[C@H]1[C@@H](O)C=C[C@H]4[C@@H](C2)N(C)CC[C@@]341 [codeine] | – | – | – | significant pain relief | no analgesia | 28 | 0.41 | 6.7 | 17.4
